The target in series [1] is T1, human NK1 receptor (Homo sapiens (Human), UniProt P25103). Nature of the series: Inhibitory effect on human NK1 receptor (substance P-induced increase in intracellular calcium concentration). The class given is cell-based. Particulars: HEK-293T; substance P 1 μM, compound 0.1 μM; human NK1 receptor-expressing 293T cells; read-out: SPRR (Substance P-Response Remaining). How it is done:
Inhibitory Effect on Human NK1 Receptor
(1) Preparation of Human NK1 Receptor-expressing Cells
Human NK1 receptor-expressing cells were prepared by the same methods as those described in 2-3 and 2-4 of Test Example 1.
(2) Study on Inhibitory Effect on Increase in Intracellular Calcium Concentration
The human NK1 receptor-expressing cells were washed with 300 μL/well of a washing solution (20 mM HEPES/Hank's Balanced Salt Solution (HBSS) […]). A fluorescent calcium indicator (Fluo-4 Direct Calcium Assay Kit, Life Technologies, containing 0.42 mM probenecid and 0.1% bovine serum albumin, prepared according to the protocol of the product) was added to the wells at 150 μL/well, and the plate was incubated at 37° C. for 30 minutes in an incubator. Then, DMSO solutions of a test compound, which were prepared at an 80-time higher concentration using 100% dimethyl sulfoxide (DMSO), were added to the wells at 2.5 μL/well (final concentrations of 0.1, 1 and 10 μM), and the solutions were mixed. Then, the plate was further incubated at 37° C. for 30 minutes in an incubator. After 30 minutes, the intracellular calcium concentrations were measured immediately.
The intracellular calcium concentrations were each measured as a fluorescent signal using FDSS (registered trademark) 7000 (Hamamatsu Photonics). A substance P (Peptide Institute, Inc.) solution which was prepared at 0.4 μM or 4 μM using an assay buffer (20 mM HEPES/Hank's Balanced Salt Solution (HBSS) pH 7.3, containing 0.1% bovine serum albumin) was added automatically to each well at 50 μL/well (final concentration of 0.1 or 1 μM) 10 seconds after starting reading, and the fluorescent signal was measured up to 120 seconds.
The intracellular calcium concentration (%) of the cells to which a test compound was added was calculated by the equation below, where the fluorescent signal of the group to which the vehicle (DMSO) was added was regarded as 100%, and the fluorescent signal before the addition of substance P was regarded as 0%. Intracellular calcium concentration(%)=(Fluorescent signal of test compound addition group)/(Fluorescent signal of vehicle addition group)×100
The intracellular calcium concentration (%) calculated was regarded as the remaining agonist activity of substance P (Substance P-Response Remaining: SPRR). In the table, Ex. No. means the Example number. SPRR (%) is the value obtained when the concentration of substance P was 1 μM and the concentration of the compound was 0.1 μM.
For orientation: Calcium flux is commonly read through the fluorescence of an indicator in the cells.

The target in series [2] is T1, human NK1 receptor. Description: Affinity for human NK1 receptor (125I-substance P receptor binding test). Particulars: membrane fraction of human NK1 receptor-expressing 293T cells; read-out: IC50 (concentration required for 50% inhibition of 125I-substance P binding). The protocol: Affinity for Human NK1 Receptor
(3) Measurement of Binding Affinity to Human NK1 Receptor
(3-1) Preparation of Membrane Fraction from Human NK1 Receptor-expressing Cells
Human NK1 receptor-expressing cells were prepared in a 175 cm^2 culture flask (Nippon Becton Dickinson). The formation of a complex of the human NK1 receptor expression plasmid and Lipofectamine 2000 was performed by calculating the culture area ratio and increasing the scale of the method described in the above 2-4 by the ratio. The human NK1 receptor-expressing cells were collected in a buffer solution for the membrane fraction preparation (50 mM Tris (Wako Pure Chemical). 120 mM sodium chloride (Wako Pure Chemical Industries), 5 mM potassium chloride (Wako Pure Chemical Industries), 1 mM ethylenediaminetetraacetic acid (Sigma), 0.002 mg/mL chymostatin (Peptide Institute), 0.04 mg/ bacitracin (Wako Pure Chemical Industries), 0.005 mg/mL phosphoramidon (Peptide Institute) and 0.5 mM phenylmethylsulfonyl fluoride (Wako Pure Chemical Industries), pH7.4) and centrifuged at 1,880 g for 10 minutes, and the cell sediment was suspended in the buffer solution for the membrane fraction preparation. After freezing and thawing the cells once, the cells were homogenized using a Dounce-type homogenizer (cooled on ice, 1000 rpm, 20 times). The homogenized cell suspension was centrifuged at 20,000 rpm for 10 minutes, and the supernatant was removed to obtain cell sediment. The cell sediment was suspended again in the buffer solution for the membrane fraction preparation and homogenized using a Dounce-type homogenizer (cooled on ice, 1000 rpm, 30 times). The cell suspension was centrifuged at 20,000 rpm for 10 minutes, and the supernatant was removed to obtain cell sediment. The same homogenization and centrifugation were repeated again, and final cell sediment was obtained. The final cell sediment was suspended in a buffer solution for the receptor binding test (50 mM Tris (Wako Pure Chemical Industries), 3 mM manganese chloride (Wako Pure Chemical Industries), 0.002 mg/mL chymostatin (Peptide Institute), 0.04 mg/bacitracin (Wako Pure Chemical Industries) and 0.02% bovine serum albumin (Sigma), pH 7.4), and the protein concentration was measured using BCA Protein Assay Kit (Pierce).
(3-2) Receptor Binding Test
The buffer solution for the receptor binding test was dispensed to the wells of a 96-well assay plate (Greiner) at 22.5 μL/well. DMSO solutions of a test compound, which were prepared at an 80-time higher concentration using 100% dimethyl sulfoxide (DMSO), were added to the wells at 2.5 μL/well (final concentrations of 1 nM to 100 nM), and the solutions were mixed. As a radiolabeled ligand, ^125I-substance P (Substance P, [^125I]Tyr^8-, PerkinElmer) was used. ^125I-substance P was diluted with the buffer solution for the receptor binding test to a concentration resulting in […] and added to the 96-well assay plate, and the solutions were mixed. The membrane fraction prepared from the human NK1 receptor-expressing cells was diluted with the buffer solution for the receptor binding test to a concentration resulting in 8 to 10 μg/well, suspended until the suspension became in such a homogenous state that the suspension could flow through as 27G injection needle smoothly and then added to the 96-well assay plate at 150 μL/well. Then, the plate was incubated at room temperature for 60 minutes while shaking the plate. The reaction solutions were suction-filtered. through a multiscreen 96-well filter plate (Millipore) which had been pre-treated with 0.3% polyethyleneimine, and the reaction was terminated by washing with a washing solution (50 mM Tris and 0.02% bovine serum albumin, pH 7.4) four times. The bottom of the microplate was dried at 60° C., and then 100 μL/well of MicroScint 20 (PerkinElmer) was dispensed to the wells. The top of the plate was sealed with TopSeal A (PerkinElmer), and the plate was shaken for 5 to 10 minutes. […]

The next series deals with NK1 receptor (Meriones unguiculatus (Mongolian jird) (Gerbillus unguiculatus), UniProt Q5DUB1). Description: Effect on GR73632-induced foot-tapping. The conditions noted are these: 0.3 mg/kg from the jugular vein, GR73632 after four hours, male gerbil. Type of series: in vivo. How it is done: (1) Effect on Foot-tapping
(§1) A male gerbil (Japan SLC) was anesthetized with isoflurane, and 0.3 mg/kg of a test compound was administered from the jugular vein. After four hours, GR73632 (5 pmol/5 μl), which is an NK1 receptor agonist, was administered into the cerebral ventricle at the part 1 mm lateral to and 4.5 mm below the bregma in the head, under anesthesia with isoflurane. After the administration, the gerbil was moved to an observation cage, and the foot-tapping period during five minutes after the recovery of the righting reflex was measured. The foot-tapping inhibition rate (%) of each test compound was calculated by the following equation. Foot-tapping inhibition rate (%)={1−(Foot-tapping period when test compound was administered)/(Foot-tapping period when solvent was administered)}×100 (2) Measurement of Drug Concentrations
(§2) In the table, Ex. No. means the Example number. Inhibition (%) is the foot-tapping inhibition rate, and Conc. (nM) is the drug concentration in the brain.

Series [3] can be described thus: Measurement of drug concentrations in the brain after foot-tapping test. The class given is in vivo. Particulars: male; 0.3 mg/kg iv, after foot-tapping was finished, gerbil brain; read-out: Conc. (drug concentration in the brain). The protocol: as §1
After foot-tapping was finished, laparotomy was performed immediately under anesthesia with ether, and a blood sample was taken from the abdominal vena cava. At the same time, the brain was extracted. Through a quantitative analysis using liquid chromatography-mass spectrometry (LC/MS), the concentrations of the test compound in the plasma and the brain were measured.
as §2

Series [4] concerns the target T2, CYP3A4 (Homo sapiens (Human), UniProt P08684).
Experimental: Enzyme reaction was performed by incubating in a potassium phosphate buffer solution (pH 7.4) containing 1 nM to 20 μM test compound, 3.2 mM magnesium chloride, 0.2 pmol human CYP3A4 (BD Biosciences), 0.5 mM reduced nicotinamide adenine dinucleotide phosphate (NADPH) and 3 μM Luciferin-IPA (Promega) at 37° C. for 10 minutes. The volume of the reaction solution was 50 μL/well. The 30-minute pre-incubation group was incubated at 37° C. for 30 minutes before adding the substrate, the Luciferin-IPA solution (12.5 μL/well). At the end of the enzyme reaction, 50 μL/well of a Luciferin detection reagent (Promega) was added to the wells, and the plate was left at room temperature for 20 minutes. Then, the emission intensities were measured with Infinite M1000 (TECAN). The enzyme activities (%) relative to the value of the group to which the test compound was not added were calculated.
Series [5] deals with T2, CYP3A4. Particulars: background literature; cited from earlier work.

The source of these data is US10100030B2 (Kissei Pharmaceutical Co., Ltd., priority 2013, dated 2018).

Where two headings read alike, the source gives them in different places.

T1 sequence (P25103 whole entry): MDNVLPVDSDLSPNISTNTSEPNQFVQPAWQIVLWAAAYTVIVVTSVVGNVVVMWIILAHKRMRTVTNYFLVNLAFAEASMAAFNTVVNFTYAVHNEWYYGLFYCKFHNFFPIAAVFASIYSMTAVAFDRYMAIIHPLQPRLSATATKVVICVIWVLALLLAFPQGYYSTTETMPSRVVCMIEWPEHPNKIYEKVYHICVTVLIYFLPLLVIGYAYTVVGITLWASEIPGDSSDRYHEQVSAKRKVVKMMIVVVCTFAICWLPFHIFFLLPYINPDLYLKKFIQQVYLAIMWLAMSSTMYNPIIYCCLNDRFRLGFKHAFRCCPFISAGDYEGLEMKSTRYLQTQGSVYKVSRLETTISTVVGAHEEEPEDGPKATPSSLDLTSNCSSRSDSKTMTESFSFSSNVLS
T2 sequence (P08684 whole entry): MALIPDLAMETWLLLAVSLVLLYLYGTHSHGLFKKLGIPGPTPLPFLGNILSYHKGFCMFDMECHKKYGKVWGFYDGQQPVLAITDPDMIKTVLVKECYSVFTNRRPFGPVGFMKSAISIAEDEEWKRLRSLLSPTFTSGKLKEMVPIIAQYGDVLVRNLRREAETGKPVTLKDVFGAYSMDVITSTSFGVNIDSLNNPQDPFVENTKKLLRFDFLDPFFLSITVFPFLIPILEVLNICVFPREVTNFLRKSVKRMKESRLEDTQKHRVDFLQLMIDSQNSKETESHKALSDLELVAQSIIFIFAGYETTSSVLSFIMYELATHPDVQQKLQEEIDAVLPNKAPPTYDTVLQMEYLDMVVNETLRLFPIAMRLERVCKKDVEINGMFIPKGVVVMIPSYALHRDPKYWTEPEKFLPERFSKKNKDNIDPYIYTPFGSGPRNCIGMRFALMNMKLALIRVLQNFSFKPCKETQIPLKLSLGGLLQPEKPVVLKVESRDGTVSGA
Sequence of NK1 receptor (Q5DUB1 whole entry): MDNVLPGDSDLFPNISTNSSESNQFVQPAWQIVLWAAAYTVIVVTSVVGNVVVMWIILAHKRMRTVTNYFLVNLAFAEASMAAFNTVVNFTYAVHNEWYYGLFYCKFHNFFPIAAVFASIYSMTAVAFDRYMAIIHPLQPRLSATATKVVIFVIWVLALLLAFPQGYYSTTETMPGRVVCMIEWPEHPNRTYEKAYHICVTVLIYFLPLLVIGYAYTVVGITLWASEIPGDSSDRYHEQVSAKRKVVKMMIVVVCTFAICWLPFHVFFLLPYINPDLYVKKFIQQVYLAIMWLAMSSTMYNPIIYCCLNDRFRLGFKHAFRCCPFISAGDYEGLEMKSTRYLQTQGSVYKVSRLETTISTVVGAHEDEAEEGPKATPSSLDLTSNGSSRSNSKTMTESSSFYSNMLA

Regarding `Cc1cc(F)ccc1-c1cc(N2CCC(C(C)C(=O)O)CC2)nc(C#N)c1N(C)C(=O)C(C)(C)c1cc(C(F)(F)F)cc(C(F)(F)F)c1` (stereo not drawn) [Example 8], the remaining activity at 0.1 µM on human NK1 receptor [1] came out at 69%. Moreover, the IC50 came to 2.25 nM at human NK1 receptor [2] and 1400 nM on CYP3A4 [4] (human, 10 min, pH 7.4). For the same compound, the “Inhibition (foot-tapping inhibition rate)” value at NK1 receptor is 100%. Further, the concentration at 4 h in series [3] stood at 213 nM.

For the compound `Cc1cc(F)ccc1-c1cc(N2CCC([C@@H](C)C(=O)O)CC2)ncc1N(C)C(=O)C(C)(C)c1cc(C(F)(F)F)cc(C(F)(F)F)c1` [Example 12, (R)-2-[5′-{[2-(3,5-Bistrifluoromethylphenyl)-2-methylpropionyl]methylaminol}-4′-(4-fluoro-2-methylphenyl)-3,4,5,6-tetrahydro-2H-[1,2]bipyridinyl-4-yl]propionic acid], the IC50 was 7.44 nM at human NK1 receptor [2] and 4600 nM against CYP3A4 [4].

For the compound `Cc1ccccc1-c1cc(N2CCN(C)CC2)ncc1N(C)C(=O)C(C)(C)c1cc(C(F)(F)F)cc(C(F)(F)F)c1` [netupitant], the “inhibitory effect on CYP3A4 (reported)” value on CYP3A4 [5] was “inhibitory effect on CYP3A4”.

Turning to `C[C@@H](O[C@H]1OCCN(Cc2n[nH]c(=O)[nH]2)[C@H]1c1ccc(F)cc1)c1cc(C(F)(F)F)cc(C(F)(F)F)c1` [Aprepitant, aprepitant], the “inhibitory effect on CYP3A4 (reported)” value at CYP3A4 [5] is given as “dose-dependent inhibitory effect on CYP3A4”.
